This note sets out measurements from patent US9458141B2, “Low molecular weight thyroid stimulating hormone receptor (TSHR) agonists” (The United States of America, as represented by the …, priority 2008, dated 2016).

This assay addresses T1, human TSHR (Homo sapiens, UniProt P16473).
T1 construct: expressed in transfected cells
The assay is described as follows: Homogeneous Time Resolved Fluorescence (HTRF) cAMP assay, TSHR cell line. In kind it is cell-based. Particulars: for AC50: HTRF cAMP, TSHR cell line, 30 minute incubation; for Maximum Activity compared to TSH: 100% activity = response of 30 mU/ml TSH, 0% = DMSO control, in %; for Emax: read-out: Maximum Activity compared to TSH, 100% activity = response of 30 mU/ml TSH, 0% = DMSO control; call rule not given here.

Where two headings read alike, the source gives them in different places.

T1 sequence (P16473 21-764): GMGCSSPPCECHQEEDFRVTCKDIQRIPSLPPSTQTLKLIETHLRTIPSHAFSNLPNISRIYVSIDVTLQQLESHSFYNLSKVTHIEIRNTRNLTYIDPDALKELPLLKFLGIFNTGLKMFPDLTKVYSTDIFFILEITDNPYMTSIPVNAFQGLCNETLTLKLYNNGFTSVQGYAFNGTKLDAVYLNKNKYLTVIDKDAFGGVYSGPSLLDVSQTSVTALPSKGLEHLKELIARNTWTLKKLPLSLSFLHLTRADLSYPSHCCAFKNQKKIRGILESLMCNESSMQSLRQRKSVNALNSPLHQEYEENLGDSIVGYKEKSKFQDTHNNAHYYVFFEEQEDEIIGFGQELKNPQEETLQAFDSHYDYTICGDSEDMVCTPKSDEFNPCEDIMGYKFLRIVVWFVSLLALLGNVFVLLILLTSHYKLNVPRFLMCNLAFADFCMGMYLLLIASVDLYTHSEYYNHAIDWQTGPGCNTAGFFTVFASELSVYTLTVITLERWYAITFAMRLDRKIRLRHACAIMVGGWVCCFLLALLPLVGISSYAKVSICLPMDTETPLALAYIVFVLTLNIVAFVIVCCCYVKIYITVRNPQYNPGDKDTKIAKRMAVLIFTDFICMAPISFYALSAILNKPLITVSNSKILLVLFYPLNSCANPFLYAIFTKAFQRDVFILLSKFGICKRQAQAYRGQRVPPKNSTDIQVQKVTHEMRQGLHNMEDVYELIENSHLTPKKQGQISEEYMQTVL

For the compound `COc1ccc(C(=O)O)cc1COc1ccc(NC(C)=O)cc1` [Structure 202], the concentration at half-maximal activity (AC50) result is “inactive”.
On the same count and under the same terms, then `COc1ccc(C(=O)C2C(=O)C(=O)N(Cc3ccco3)C2c2cccs2)cc1` (stereo not shown) [Structure 205], with “inactive”; and `COc1ccc(-c2nc3ccc(Cl)cc3c(=O)n2Cc2ccccc2)cc1COc1ccc(NC(C)=O)cc1` [Structure 206], with “inactive”.
On to `COc1ccc(C2Nc3ccccc3C(=O)N2Cc2ccco2)cc1COc1ccccc1` (stereo not shown) [Structure 207], for which the AC50 result was “inactive”.
Take `COc1ccc(C2Nc3ccccc3C(=O)N2Cc2ccccc2)cc1COc1cccc(C(F)(F)F)c1` (stereo not shown) [Structure 208]: the AC50 result is “inactive”.
Same read-out and setting: as for `COc1ccc(C2Nc3ccccc3C(=O)N2CCO)cc1COc1ccc(NC(C)=O)cc1` (stereo not shown) [Structure 209], the entry is “inactive”.
On to `COc1ccc(O)c(-c2nc3ccccc3c(=O)n2Cc2ccccc2)c1` [Structure 211], for which the AC50 result was “inactive”.
On the same count and under the same terms, as for `O=C1CC(c2ccco2)CC2=C1C(c1ccc(O)cc1)n1nc(C(F)(F)F)nc1N2` (stereo not shown) [Structure 213], the entry is “inactive”; as for `COc1ccc(C2Nc3ccccc3C(=O)N2Cc2ccc(C(C)(C)C)cc2)cc1COc1ccc(NC(C)=O)cc1` (stereo not shown) [Structure 214], “inactive”.
As for `COc1ccc(CN(Cc2ccccc2)C(=O)Nc2ccccc2)cc1COc1ccc(NC(C)=O)cc1` [Structure 215], the “Maximum Activity compared to TSH” value is on record as 20.00.
Regarding `COc1ccc(O)c(C2Nc3ccccc3C(=O)N2Cc2ccccc2)c1` (stereo not shown) [Structure 216], the AC50 result was “inactive”.
For `COc1ccc2c(c1OC)C(=O)N1c3ccccc3C(=O)N(Cc3ccco3)C21` (stereo not shown) [Structure 217], the AC50 entry is “inactive”.
As to `COc1ccc(-c2nc3cccc(OC)c3c(=O)n2Cc2ccccc2)cc1COc1ccc(NC(C)=O)cc1` [Structure 218], the Emax came out at 38%. The AC50 (read-out: AC50) was 39.8 µM.
For the compound `O=C(c1ccccc1O)N(Cc1ccco1)Cc1ccco1` [Structure 219], the AC50 result is “inactive”.
For the compound `COc1ccc(CN(Cc2ccccc2)C(=O)c2ccccc2O)cc1COc1ccc(NC(C)=O)cc1` [Structure 220], the “Maximum Activity compared to TSH” value is on record as 32.00. Besides, the AC50 (read-out: AC50) came out at 17.8 µM.
For the compound `COc1ccc(C2Nc3ccccc3C(=O)N2CCO)cc1COc1ccc(NC(C)=O)cc1` (stereo not shown) [Structure 221], the AC50 result was “inactive”.
For `COc1ccc(CN(Cc2ccccc2)[S+](=O)([O-])c2ccccc2)cc1COc1ccc(NC(C)=O)cc1` [Structure 223], the AC50 result is “inactive”.
With `COc1ccc(C2Nc3ccccc3C(=O)N2CCc2ccc(Cl)cc2Cl)cc1COc1ccc(NC(C)=O)cc1` (stereo not shown) [Structure 224], the AC50 result is “inactive”.
In the case of `COc1ccc(C2Nc3ccccc3C(=O)N2CCc2ccc(Cl)cc2Cl)cc1COc1ccc(NC(C)=O)cc1` (stereo not shown) [Structure 225], the AC50 entry is “inactive”.
`COc1ccc(C2Nc3ccccc3C(=O)N2Cc2ccccc2)cc1COc1ccc(NC(C)=O)cc1` (stereo not shown) [Structure 227]: the AC50 result is “inactive”.
Same read-out and setting: then `COc1ccc(C2Nc3ccccc3C(=O)N2Cc2ccccc2)cc1OCc1ccc(NC(C)=O)cc1` (stereo not shown) [Structure 228], with “inactive”.
`COc1ccc(C2Nc3ccccc3C(=O)N2Cc2ccccc2)cc1COc1ccccc1OC` (stereo not shown) [Structure 229]: the Emax is 23.5%. The AC50 (read-out: AC50) came out at 8.91 µM.
Regarding `COc1cc(C2Nc3ccccc3C(=O)N2Cc2ccccc2)ccc1OCc1ccc(NC(C)=O)cc1` (stereo not shown) [Structure 230], the AC50 result was “inactive”.
Regarding `COc1ccc(C2Nc3ccccc3C(=O)N2Cc2ccccc2Cl)cc1COc1ccc(NC(C)=O)cc1` (stereo not shown) [Structure 231], the Emax was found to be 16%. Moreover, the AC50 (read-out: AC50) is 3.55 µM.
As to `COc1ccc(C2Nc3ccccc3C(=O)N2Cc2ccccc2)cc1COc1ccc(C)cc1` (stereo not shown) [Structure 232], the half-maximal activity concentration (AC50) result is “inactive”.
With `COc1ccc(C2NC(=O)c3ccccc3N2)cc1COc1ccc(NC(C)=O)cc1` (stereo not shown) [Structure 233], the AC50 result is “inactive”.
Regarding `COc1ccc(C2Nc3ccccc3C(=O)N2Cc2ccc(C(F)(F)F)cc2)cc1COc1ccc(NC(C)=O)cc1` (stereo not shown) [Structure 234], the “Maximum Activity compared to TSH” value is on record as 18.00. Moreover, the AC50 (read-out: AC50) turned out to be 8.91 µM.
Take `COc1ccc(C2Nc3cccc(OC)c3C(=O)N2Cc2ccccc2)cc1COc1ccc(NC(C)=O)cc1` (stereo not shown) [Structure 235]: the half-maximal activity concentration (AC50) entry was “inactive”.
Turning to `COc1ccc(CN(Cc2ccccc2)C(=O)COC(C)=O)cc1COc1ccc(NC(C)=O)cc1` [Structure 236], the “Maximum Activity compared to TSH” value is given as 32.00. The AC50 (read-out: AC50) was found to be 35.5 µM.
Turning to `COc1ccc(C2Nc3ccccc3C(=O)N2Cc2ccco2)cc1COc1ccc(N)cc1` (stereo not shown) [Structure 237], the AC50 result is “inactive”.
On to `COc1ccc(C2Nc3ccccc3C(=O)N2Cc2ccccc2)cc1COc1ccc(Cl)cc1` (stereo not shown) [Structure 238], for which the half-maximal activity concentration (AC50) result is “inactive”.
As to `COc1cccc(-c2nc(SC)nc3sc(C(=O)NC(C)(C)C)c(N)c23)c1` [Structure 239], the “Maximum Activity compared to TSH” value is recorded as 30.00. Also, the AC50 (read-out: AC50) stood at 17.8 µM.
Turning to `COc1cccc(-c2nc(SC)nc3sc(C(=O)NC(C)(C)C)c(N)c23)c1` [Structure 240], the AC50 result was “inactive”.
In the case of `COc1ccc(C2Nc3ccccc3C(=O)N2Cc2ccc(-c3ccccc3)cc2)cc1COc1ccc(NC(C)=O)cc1` (stereo not shown) [Structure 242], the AC50 entry was “inactive”.
`COc1ccc(C2Nc3ccccc3C(=O)N2Cc2ccccc2)cc1Oc1ccc(NC(C)=O)cc1` (stereo not shown) [Structure 243]: the half-maximal activity concentration (AC50) result was “inactive”.
Still for that read-out and setting: then `O=C1CC(c2ccco2)CC2=C1C(c1ccncc1)n1nc(C(F)(F)F)nc1C2` (stereo not shown) [Structure 244], with “inactive”.
Consider `COc1ccc(C2Nc3ccccc3C(=O)N2Cc2ccco2)cc1COc1ccc([N+](=O)[O-])cc1` (stereo not shown) [Structure 245], for which the AC50 entry was “inactive”.
Consider `COc1ccc(CN2C(=O)N(c3ccccc3)C(=O)C2c2ccccc2)cc1COc1ccc(NC(C)=O)cc1` (stereo not shown) [Structure 247], for which the AC50 result was “inactive”.
Turning to `COc1ccc(CN(Cc2ccccc2)C(=O)c2ccno2)cc1COc1ccc(NC(C)=O)cc1` [Structure 248], the Emax was 32%. Moreover, the half-maximal activity concentration (AC50) (read-out: AC50) was 70.8 µM.
Take `COc1ccc(CN(Cc2ccccc2)C(=O)c2ccno2)cc1COc1ccc(NC(C)=O)cc1` [Structure 249]: the “Maximum Activity compared to TSH” value was 38.00. Under “read-out: AC50”, the AC50 is 50.1 µM.
As to `COc1ccc(C2Nc3ccccc3C(=O)N2Cc2ccccc2)cc1COc1ccc(C#N)cc1` (stereo not shown) [Structure 250], the concentration at half-maximal activity (AC50) entry was “inactive”.
For the compound `O=C1c2ccccc2NC(c2cc(Br)c3c(c2)OCO3)N1Cc1ccco1` (stereo not shown) [Structure 251], the concentration at half-maximal activity (AC50) entry is “inactive”.
Same read-out and setting: then `COc1cc(C2Nc3ccccc3C(=O)N2Cc2ccccc2)ccc1OCc1ccc(NC(C)=O)cc1` (stereo not shown) [Structure 252], with “inactive”; and `O=C1c2ccccc2NC(c2ccccc2)N1Cc1ccco1` (stereo not shown) [Structure 254], with “inactive”; and `O=C1c2ccccc2NC(c2ccccc2)N1Cc1ccco1` (stereo not shown) [Structure 255], with “inactive”.
As to `COc1ccc(OCc2cc(C3Nc4ccccc4C(=O)N3Cc3ccccc3)ccc2OC)cc1` (stereo not shown) [Structure 256], the “Maximum Activity compared to TSH” value came out at 24.00. Further, where the note is “read-out: AC50”, the AC50 was 5.01 µM.
For the compound `COc1ccc(C2Nc3ccccc3C(=O)N2CC(C)(C)C)cc1COc1ccc(NC(C)=O)cc1` (stereo not shown) [Structure 257], the Emax was 20%. For the setting “read-out: AC50”, the AC50 came to 20 µM.
In the case of `COc1ccc(C2Nc3ccccc3C(=O)N2C2CCCC2)cc1COc1ccc(NC(C)=O)cc1` (stereo not shown) [Structure 258], the “Maximum Activity compared to TSH” value is given as 21.50. For the same compound, the AC50 (read-out: AC50) worked out at 28.2 µM.
On to `COc1ccc(C2Nc3ccccc3C(=O)N2Cc2ccccc2)cc1COc1cccc(Cl)c1` (stereo not shown) [Structure 259], for which the AC50 entry was “inactive”.
Consider `COc1ccc(O)c(C2Nc3ccccc3C(=O)N2Cc2ccccc2)c1` (stereo not shown) [Structure 260], for which the AC50 result is “inactive”.
`COc1ccc(-c2nc3ccc(NC(=O)COC(C)=O)cc3c(=O)n2Cc2ccccc2)cc1COc1ccc(NC(C)=O)cc1` [Structure 261]: the AC50 entry is “inactive”.
With `COc1ccc(C2Nc3ccccc3C(=O)N2Cc2ccccc2)cc1COc1ccc(NC(=O)c2ccccc2)cc1` (stereo not shown) [Structure 263], the AC50 entry is “inactive”.
The same measure, in the same setting: then `COc1ccc(C2Nc3ccccc3C(=O)N2Cc2ccccc2)cc1COc1ccc(NC(=O)c2ccccc2)cc1` (stereo not shown) [Structure 264], with “inactive”.
As to `COc1ccc(C2Nc3ccccc3C(=O)N2Cc2ccccc2C(F)(F)F)cc1COc1ccc(NC(C)=O)cc1` (stereo not shown) [Structure 265], the “Maximum Activity compared to TSH” value came to 24.00. In addition, where the note is “read-out: AC50”, the AC50 amounted to 6.31 µM.
As to `COc1ccc(C2Nc3ccccc3C(=O)N2Cc2ccco2)cc1COc1ccccc1` (stereo not shown) [Structure 266], the AC50 entry is “inactive”.
As for `COc1ccc(C2N(Cc3ccccc3)C(=O)c3ccccc3N2C)cc1COc1ccc(NC(C)=O)cc1` (stereo not shown) [Structure 267], the “Maximum Activity compared to TSH” value amounted to 24.50. For the same compound, the AC50 (read-out: AC50) came to 7.94 µM.
For `CC(C)c1ccc(C2C3=C(CC(c4ccco4)CC3=O)Nc3nc(C(F)(F)F)nn32)cc1` (stereo not shown) [Structure 268], the AC50 result was “inactive”.
For `COc1ccc(C2Nc3ccccc3C(=O)N2Cc2ccccn2)cc1COc1ccc(NC(C)=O)cc1` (stereo not shown) [Structure 269], the “Maximum Activity compared to TSH” value turned out to be 28.00. Also, for the setting “read-out: AC50”, the AC50 amounted to 25.1 µM.
`COc1ccc(C2Nc3ccccc3C(=O)N2Cc2ccccc2)cc1COc1ccc(C(N)=O)cc1` (stereo not shown) [Structure 270]: the AC50 entry is “inactive”.
`COc1ccc(CN(Cc2ccccc2)C(=O)c2ccccc2O)cc1` [Structure 271]: the concentration at half-maximal activity (AC50) entry is “inactive”.
Take `COc1ccc(C2Nc3ccccc3C(=O)N2Cc2ccccc2)cc1COc1ccc(F)cc1` (stereo not shown) [Structure 272]: the AC50 result was “inactive”.
